Data on 1 compound can be found in paper PMC10100467, “The Function of Two Radical‐SAM Enzymes, HcgA and HcgG, in the Biosynthesis of the [Fe]‐Hydrogenase Cofactor” (Angewandte Chemie (International Ed. in English), 2022).

In this assay the target is T1, HcgA (Methanococcus maripaludis, UniProt Q6M0Z2).
T1 construct: His-tagged, produced in Escherichia coli with helper plasmid pRKISC; [4Fe-4S] radical SAM enzyme, CX5CX2C motif
T1 sequence (Q6M0Z2 1-341): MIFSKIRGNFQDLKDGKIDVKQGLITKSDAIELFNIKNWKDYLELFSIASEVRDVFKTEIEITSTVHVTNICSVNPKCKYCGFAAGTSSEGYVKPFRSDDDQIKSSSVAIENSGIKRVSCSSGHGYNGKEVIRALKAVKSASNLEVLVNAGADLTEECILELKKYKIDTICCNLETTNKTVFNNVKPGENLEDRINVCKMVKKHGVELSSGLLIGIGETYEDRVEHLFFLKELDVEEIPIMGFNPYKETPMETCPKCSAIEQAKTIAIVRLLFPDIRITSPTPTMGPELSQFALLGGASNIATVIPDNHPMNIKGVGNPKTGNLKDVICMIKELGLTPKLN
The assay is described as follows: radical SAM activity, HPLC-MS of product […]. The conditions noted are these: 1 mM SAH, without added SAM; 3 kDa filtrate of the delta-hcgA cell extract as substrate. The assay is classed as biochemical.

Consider `Nc1ncnc2c1ncn2[C@@H]1O[C@H](CSCC[C@H](N)C(=O)O)[C@@H](O)[C@H]1O` [S-adenosyl homocysteine], for which the “relative activity (%)” value is on record as “The HcgA activity was inhibited by a radical SAM enzyme inhibitor, S‐adenosyl homocysteine”.
